Consider 9 compounds from patent publication US7541495B2, “para-alkyl-substituted N-(4-hydroxy-3-methoxy-benzyl)-cinnamamides, pharmaceutical compositions and uses thereof” (Gruenenthal GmbH, priority 2004, dated 2009).

For orientation: EC50 means the midpoint of the concentration-response curve. High values mean lower potency in that assay, low ones higher potency in that assay.

Test [1] has as its target T1, rat vanilloid receptor 1 (VR1/TRPV1) (Rattus norvegicus, UniProt O35433).
T1 construct: expressed in transfected cells; host or cells: CHO K1 cells (ECACC)
Kind of test: FLIPR Ca2+ influx functional study on rat vanilloid receptor 1. The test is classed as cell-based. The following applies: CHO K1 cells transfected with rat VR1; for Emax at 10 µM: test substance 10 μM, Ca2+ signal relative to 10 μM capsaicin, read-out: VR1 (Rat) (% Stimulation compared with 10 μM CP). The text has this: (§1) 1. Functional Study on the Vanilloid Receptor 1 (VR1/TRPV1 Receptor)
(§2) The agonist activity or antagonist activity of the substances to be tested on the vanilloid receptor 1 (VR1/TRPV1) of the species human and rat can be determined using the following assay. According to this assay, the Ca^2+ influx through the channel is quantified by means of a Ca^2+-sensitive dye (type Fluo-4, Molecular Probes Europe BV, Leiden, Netherlands) in the Fluorescent Imaging Plate Reader (FLIPR, Molecular Devices, Sunnyvale, USA).
(§3) Chinese hamster ovary cells (CHO K1 cells, European Collection of Cell Cultures (ECACC), England) are stably transfected with the human or rat vanilloid receptor 1 (VR1) gene. For functional studies, these cells are plated out in a density of 25,000 cells/well on poly-D-lysine-coated, black 96-well plates having a clear base (BD Biosciences, Heidelberg, Germany). The cells are incubated overnight at 37° C. and 5% CO2 in culture medium (Nutrient Mixture Ham's F12, Gibco Invitrogen GmbH, Karlsruhe, Germany) with 10% v/v of FBS (fetal bovine serum, Gibco Invitrogen GmbH, Karlsruhe, Germany) and 18 μg/ml of L-proline (Gibco Invitrogen GmbH, Karlsruhe, Germany). On the following day, the cells are charged with 2 μM of Fluo-4 and 0.01% v/v of Pluronic F127 (Molecular Probes Europe BV, Leiden, Netherlands) in HBSS buffer solution (Hank's buffered saline solution, Gibco Invitrogen GmbH, Karlsruhe, Germany) for 30 minutes at 37° C. The plates are then washed three times with HBSS buffer solution and, after incubation for a further 15 minutes at room temperature, used in the FLIPR assay for Ca^2+ measurement. The Ca^2+-dependent fluorescence is measured before and after the addition of test substances (λex=488 nm, λem=540 nm). Quantification is effected by measuring the highest fluorescence intensity (FC, fluorescence counts) over time.
(§4) The FLIPR protocol consists of two additions of test substance. Test substances (10 μM) are first pipetted onto the cells and the Ca^2+ influx is compared with the control (capsaicin 10 μM). This gives the percentage activation, based on the Ca^2+ signal after the addition of 10 μM of capsaicin (CP). After 5 minutes' incubation, 100 nM of capsaicin are applied and the influx of Ca^2+ is likewise determined. Desensitizing agonists and antagonists lead to suppression of the Ca^2+ influx. The percentage inhibition compared with the maximum achievable inhibition is calculated using 10 μM of capsaicin. In order to determine the EC50 values, the substances are added in various concentrations. Determinations are carried out in triplicate (n=3) and these are repeated in at least three independent experiments (N=4).
(§5) The agonist activity or antagonist activity was determined on human and rat vanilloid receptor 1 (VR1/TRPV1 receptor) using the above-described FLIPR assay.

Test [2] has as its target T2, human vanilloid receptor 1 (VR1/TRPV1) (Homo sapiens, UniProt Q8NER1).
T2 construct: expressed in transfected cells; host or cells: CHO K1 cells (ECACC)
Kind of test: FLIPR Ca2+ influx functional study on human vanilloid receptor 1. The test is classed as cell-based. Particulars: CHO K1 cells transfected with human VR1; for Emax at 10 µM: test substance 10 μM, Ca2+ signal relative to 10 μM capsaicin, read-out: VR1 (Human) (% Stimulation compared with 10 μM CP).
Excerpt: as §1, §2, §3, §4, §5

Test [3] has as its system phenylquinone-induced writhing in mice. Kind of test: Phenylquinone-induced writhing test on mice. Particulars: phenylquinone i.p. 10 min after dose. The class given is in vivo, male NMRI mice. The procedure: 2. Analgesic Test Using the Writhing Test on Mice
The analysis of analgesic activity in the compounds of the invention of formula is carried out using the phenylquinone-induced writhing assay in mice, modified as described in the article by I. C. Hendershot and J. Forsaith (1959) in J. Pharmacol. Exp. Ther. 125, 237-240. The relevant description is incorporated herein by reference and is to be regarded as part of the present disclosure.
For the present purpose, male NMRI mice are used having a weight of from 25 to 30 g. Groups of 10 animals per substance dose received, 10 minutes after an intravenous dose of test substances, an intraperitoneal administration of 0.3 ml/mouse of a 0.02% strength aqueous solution of phenylquinone(phenylbenzoquinone, obtainable from Sigma, Deisenhofen; solution produced with the addition of 5% of ethanol and storage in a water bath at 45° C.). The animals were placed individually in observation cages. Using a pushbutton counter, the number of pain-induced stretching movements (so-called writhing reactions=straightening of the body accompanied by stretching of the rear extremities) was counted over a period of from 5 to 20 minutes following the administration of phenylquinone. The control is provided by animals receiving only physiological saline. […]

T1 sequence (O35433 whole entry): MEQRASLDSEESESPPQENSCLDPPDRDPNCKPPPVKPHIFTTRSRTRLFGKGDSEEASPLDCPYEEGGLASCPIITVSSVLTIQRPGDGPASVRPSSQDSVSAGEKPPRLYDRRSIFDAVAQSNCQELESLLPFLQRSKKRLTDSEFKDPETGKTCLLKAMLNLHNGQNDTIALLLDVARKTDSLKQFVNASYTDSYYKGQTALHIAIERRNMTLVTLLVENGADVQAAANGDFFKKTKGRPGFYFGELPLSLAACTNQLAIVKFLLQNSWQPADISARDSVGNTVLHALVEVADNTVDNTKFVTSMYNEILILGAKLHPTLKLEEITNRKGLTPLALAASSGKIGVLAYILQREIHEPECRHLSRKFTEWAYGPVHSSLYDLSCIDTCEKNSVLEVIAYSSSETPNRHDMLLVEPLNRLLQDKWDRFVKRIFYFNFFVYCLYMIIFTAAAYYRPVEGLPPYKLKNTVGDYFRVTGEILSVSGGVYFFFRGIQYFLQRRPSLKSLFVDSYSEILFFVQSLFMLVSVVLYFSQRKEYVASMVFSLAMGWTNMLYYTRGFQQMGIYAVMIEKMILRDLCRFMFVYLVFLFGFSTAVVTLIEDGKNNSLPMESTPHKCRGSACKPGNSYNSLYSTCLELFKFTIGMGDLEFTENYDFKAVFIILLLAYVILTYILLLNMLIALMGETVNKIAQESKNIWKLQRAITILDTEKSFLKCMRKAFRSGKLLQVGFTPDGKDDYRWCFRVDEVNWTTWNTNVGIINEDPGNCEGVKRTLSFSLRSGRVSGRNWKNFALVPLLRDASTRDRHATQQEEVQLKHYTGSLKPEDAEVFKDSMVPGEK
T2 sequence (Q8NER1 whole entry): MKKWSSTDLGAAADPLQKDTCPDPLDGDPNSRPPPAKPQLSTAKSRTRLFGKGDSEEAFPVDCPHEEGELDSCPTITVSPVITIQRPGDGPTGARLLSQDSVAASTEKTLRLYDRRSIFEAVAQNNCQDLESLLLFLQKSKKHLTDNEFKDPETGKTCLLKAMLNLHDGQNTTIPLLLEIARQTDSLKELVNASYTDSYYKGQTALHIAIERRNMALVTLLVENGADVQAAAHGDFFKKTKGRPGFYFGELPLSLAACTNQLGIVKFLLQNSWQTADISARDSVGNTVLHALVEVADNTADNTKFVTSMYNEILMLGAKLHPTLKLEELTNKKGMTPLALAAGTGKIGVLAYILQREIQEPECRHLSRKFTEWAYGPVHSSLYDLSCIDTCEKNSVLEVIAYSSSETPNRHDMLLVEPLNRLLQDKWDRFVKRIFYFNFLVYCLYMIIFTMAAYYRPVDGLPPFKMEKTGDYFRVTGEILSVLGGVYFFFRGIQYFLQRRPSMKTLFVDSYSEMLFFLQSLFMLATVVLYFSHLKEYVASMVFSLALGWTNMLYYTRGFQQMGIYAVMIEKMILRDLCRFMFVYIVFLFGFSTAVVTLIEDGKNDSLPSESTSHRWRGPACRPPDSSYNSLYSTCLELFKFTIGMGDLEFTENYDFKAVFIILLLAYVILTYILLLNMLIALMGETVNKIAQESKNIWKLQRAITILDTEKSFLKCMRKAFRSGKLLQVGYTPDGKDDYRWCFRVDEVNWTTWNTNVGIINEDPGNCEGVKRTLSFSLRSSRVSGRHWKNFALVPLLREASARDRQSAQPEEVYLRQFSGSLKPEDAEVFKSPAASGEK

On to `CCCCc1ccc(/C=C/C(=O)NCc2ccc(O)c(OC)c2)cc1` [Example 8, para-butyl-trans-N-(4-hydroxy-3-methoxybenzyl)-cinnamic acid amide], for which the Emax at 10 µM in test [1] is 132%; in test [2], 110%.
Turning to `COc1cc(CNC(=O)/C=C/c2ccc(CC(C)(C)C)cc2)ccc1O` [Example 7, para-neo-pentyl-trans-N-(4-hydroxy-3-methoxybenzyl)-cinnamic acid amide], the Emax at 10 µM in test [1] was determined as 142%; in test [2] it was 102%.
On to `CCc1ccc(/C=C/C(=O)NCc2ccc(O)c(OC)c2)cc1` [Example 2, para-ethyl-trans-N-(4-hydroxy-3-methoxybenzyl)-cinnamic acid amide], for which the Emax at 10 µM in test [1] is 84%; in test [2], 71%. Further, the “Reduction of Nociceptive Behavior Relative to Controls” value in test [3] (0.1 mg/kg i.v.) amounted to 54%.
For `COc1cc(CNC(=O)/C=C/c2ccc(C(C)C)cc2)ccc1O` [Example 3, para-isopropyl-trans-N-(4-hydroxy-3-methoxybenzyl)-cinnamic acid amide], the figures for the Emax at 10 µM in test [1] and in test [2] were 97% and 71%, respectively. The “Reduction of Nociceptive Behavior Relative to Controls” value in test [3] (0.1 mg/kg i.v.) came to 52%.
In the case of `COc1cc(CNC(=O)/C=C/c2ccc(C(C)(C)C)cc2)ccc1O` [Example 4, para-tert.-Butyl-trans-N-(4-hydroxy-3-methoxybenzyl)-cinnamic acid amide], the figures for the EC50 in test [1] (FLIPR Ca2+ influx) and in test [2] (FLIPR Ca2+ influx) were 0.129 nM and 0.147 nM, respectively. The Emax at 10 µM in test [1] is 106%; in test [2], 115%. For the same compound, the “Reduction of Nociceptive Behavior Relative to Controls” value in test [3] (0.1 mg/kg i.v.) was 63%.
As for `COc1cc(CNC(=O)/C=C/c2ccc(C)cc2)ccc1O` [Example 1, para-methyl-trans-N-(4-hydroxy-3-methoxybenzyl)-cinnamic acid amide], the Emax at 10 µM in test [1] came to 92%; in test [2], 56%.
On to `CCCCCCCCc1ccc(/C=C/C(=O)NCc2ccc(O)c(OC)c2)cc1` [Example 9, para-octyl-trans-N-(4-hydroxy-3-methoxybenzyl)-cinnamic acid amide], for which the Emax at 10 µM in test [1] is 126%; in test [2], 97%. Also, the “Reduction of Nociceptive Behavior Relative to Controls” value in test [3] (0.1 mg/kg i.v.) came out at 47%.
In the same order, the values of `COc1cc(CNC(=O)/C=C/c2ccc(CC(C)C)cc2)ccc1O` [Example 6, para-iso-butyl-trans-N-(4-hydroxy-3-methoxybenzyl)-cinnamic acid amide] are 141%, 103% and 70%.
With `CCCc1ccc(/C=C/C(=O)NCc2ccc(O)c(OC)c2)cc1` [Example 5, para-propyl-trans-N-(4-hydroxy-3-methoxybenzyl)-cinnamic acid amide], the results for the Emax at 10 µM in test [1] and in test [2] were 119% and 102%, respectively. Also, the “Reduction of Nociceptive Behavior Relative to Controls” value in test [3] (0.316 mg/kg i.v.) was determined as 55%.
